Usually GI50 stands for the concentration that inhibits growth by half. Low readings indicate greater sensitivity of the cells, high ones lower sensitivity of the cells. By MFC is commonly meant the smallest concentration meeting the test's criterion for killing the fungus.

One data set has as its system Candida albicans. The data set can be described thus: Microdilution assay, MIC (strain not named). The format is cell-based. The settings on record: C. albicans, this study, strain not given, read-out: minimum inhibitory concentration (MIC). An excerpt:
C. albicans was isolated from oral cavities of patients at ENT Clinic, Clinical Hospital Centre Zvezdara, Belgrade, Serbia after obtaining informed written consent and identified by using CHROMagar plates (Biomerieux, Craponne, France). Strains were maintained on Sabouraud Dextrose Agar (Merck, Darmstadt, Germany) and are deposited at the Mycological Laboratory, Department of Plant Physiology, Institute for Biological Research “Siniša Stanković”, National Institute of Republic of Serbia, University of Belgrade. The collection of samples was approved by the Ethical Committee (Office for Human Research Protection, Zvezdara University Medical Center, Belgrade, Serbia, document issued 26 October 2016).
Microdilution assay with some modification was used for determination of minimum inhibitory (MIC) and minimum fungicidal concentrations (MFC). Yeast cultures were adjusted to 1.0 × 10^5 CFU/per well with sterile PBS (Phosphate buffered saline, pH 7.4). The 96-well microtiter plates with serially diluted flavonoids (concentration range 0.3–75 µg/mL) in liquid broth were incubated at 37 °C for 24 h. After incubation, MIC and MFC were determined. The lowest concentrations that were not inducing microscopically observed growth were considered as MIC. For microscopic determination of growth, we used inverted microscope Nikon Eclipse TS2 (Amsterdam, Netherland) and examined the fungal growth in the wells of 96-well microtiter plates compared to the control (untreated yeast cells). MFC values were determined as concentrations without visible growth after serial sub-cultivation of 10 µL of samples at 37 °C for 24 h. Ketoconazole and amphotericin B (SigmaAldrich, Darmstadt, Germany) were used as an antifungal control. The tested flavonoids were obtained from Extrasynthese, Rhone, France.

A further data set concerns C. albicans biofilm. The settings on record: cited from earlier work.
Another data set relates to C. albicans. The settings on record: cited from earlier work.
For data set [1], the system named is C. albicans 475/15 hyphal growth. The data set can be described thus: Anti-hyphal forming activity. The data set is classed as cell-based, Candida albicans. Particulars: MIC, 4 h, YPD + 10% FBS. As for the experimental part:
C. albicans 475/15 cells were incubated with MIC of tested compounds in YPD + 10% FBS, at 37 °C, for 4 h. Cells were examined under microscope (Nikon Eclipse TS2, Amsterdam, Netherland) and number of cells, growing in the yeast or hyphal and germ tube formations, was determined. Assay was performed in triplicate and percentage of hyphae was determined.

A short description of another data set: in vitro. The settings on record: pig.
Another data set concerns C. albicans 475/15. The data set can be described thus: Microdilution assay, MIC and MFC. The data set is classed as cell-based. The settings on record: Candida albicans, C. albicans 475/15, mean ± SD of three replicates; for MFC: read-out: MFC; for MIC: read-out: MIC. For orientation: In broth dilution the organism is exposed to a series of concentrations in liquid medium.

The subject of the next data set is C. albicans 13/15. The data set can be described thus: Microdilution assay, MIC and MFC. The format is cell-based. The settings on record: Candida albicans, C. albicans 13/15, mean ± SD of three replicates; for MFC: read-out: MFC; for MIC: read-out: MIC.
The next data set deals with C. albicans 10/15. The data set can be described thus: Microdilution assay, MIC and MFC. Particulars: Candida albicans, C. albicans 10/15, mean ± SD of three replicates; for MFC: read-out: MFC; for MIC: read-out: MIC. The data set is classed as cell-based.
For another data set, the system named is C. albicans 527/14. The data set can be described thus: Microdilution assay, MIC and MFC. The data set is classed as cell-based. The settings on record: Candida albicans, C. albicans 527/14, mean ± SD of three replicates; for MFC: read-out: MFC; for MIC: read-out: MIC.
For data set [2], the system named is HUVE (human umbilical vein endothelial) cells. The settings on record: read-out: LC50; cited from earlier work.

In brackets after ≈: the same amount, converted by molar mass. Read-outs that look alike come from different tables or passages of the source.

As to `O=c1c(O[C@@H]2O[C@H](CO)[C@@H](O)[C@H](O)[C@H]2O)c(-c2ccc(O)c(O)c2)oc2cc(O)cc(O)c12` [Isoquercitrin, isoquercitrin], the MIC is 37.5 µg/mL (≈ 80.8 µM) in the data set on Candida albicans; 2.5 µg/mL (≈ 5.38 µM) with C. albicans (C. albicans ATCC 90028); 37.5 ± 1 µg/mL (≈ 80.8 µM) in the data set with C. albicans 475/15; 37.5 ± 2 µg/mL (≈ 80.8 µM) with C. albicans 13/15; 37.5 ± 2 µg/mL (≈ 80.8 µM) in the data set on C. albicans 10/15; 37.5 ± 1 µg/mL (≈ 80.8 µM) with C. albicans 527/14. Besides, in the data set with C. albicans biofilm (ref 19), the “concentration with antibiofilm potential” value is 200 µg/mL. The “reduction of hyphal growth (words)” value is “efficient in reduction of hyphal growth” in data set [1] and “reduced” in data set [1] (listed as isoquercitrin). The same compound registered a GI50 in the data set “in vitro” greater than 400 µg/mL. In addition, the MFC with C. albicans 475/15, in the data set with C. albicans 13/15, in the data set with C. albicans 10/15 and in the data set with C. albicans 527/14 was 75 ± 2 µg/mL (≈ 162 µM) each time.

On to `O=c1c(O)c(-c2ccc(O)c(O)c2)oc2cc(O)cc(O)c12` [Quercetin, quercetin], for which the MIC in the data set on Candida albicans is 75 µg/mL (≈ 248 µM); in the data set with C. albicans (C. albicans ATCC 10231, ref 16) it was 8 µg/mL (≈ 26.5 µM); in the data set on C. albicans (C. albicans ATCC 10231, ref 17), 100 µg/mL (≈ 331 µM); with C. albicans (clinical isolates and C. albicans 10231) it was greater than 83 µg/mL; in the data set on C. albicans (clinical isolates and reference strains ATCC 10231 and SC5314) it was 128 to 512 µg/mL; in the data set on C. albicans 475/15 it was 75 ± 2 µg/mL (≈ 248 µM). Also, the figures for the MIC in the data set with C. albicans 13/15, with C. albicans 10/15 and in the data set with C. albicans 527/14 were 75 ± 10 µg/mL (≈ 248 µM), 75 ± 3 µg/mL (≈ 248 µM) and 75 ± 2 µg/mL (≈ 248 µM), respectively. Further, in the data set with C. albicans biofilm (625 µg/mL, C. albicans ATCC 90028), the “activity against preformed 24-h-old biofilms” value was “inactive”. The “SMIC (sessile cells MIC)” value is no less than 1024 µg/mL in the data set on C. albicans biofilm (C. albicans ATCC 10231, SC 5314 and clinical isolates); greater than 200 µg/mL in the data set on C. albicans biofilm (oral and reference isolates SC5314 and 3153A). For the same compound, the “concentration that prevented biofilm establishment” value with C. albicans biofilm (C. albicans NBC099) was 200 µg/mL. In addition, the “reduction of hyphal growth (words)” value in data set [1] is given as “only slight inhibition”. Further, the GI50 in “in vitro” is greater than 400 µg/mL. For the same compound, the MFC with C. albicans 475/15 was found to be 150 ± 10 µg/mL (≈ 496 µM); in the data set with C. albicans 13/15 it was 150 ± 20 µg/mL (≈ 496 µM); in the data set with C. albicans 10/15 it was 150 ± 20 µg/mL (≈ 496 µM); in the data set with C. albicans 527/14 it was 150 ± 10 µg/mL (≈ 496 µM). The CC50 in data set [2] is 61 µM.

These data come from publication PMC7824033, “Flavones, Flavonols, and Glycosylated Derivatives—Impact on Candida albicans Growth and Virulence, Expression of CDR1 and ERG11, Cytotoxicity” (Pharmaceuticals, 2020).
